Assay results published in PubChem BioAssay AID1963874 (Molecular Pharmacology Branch, DTP, NCI, 2024).

Test system: 253994-281-T-J1-PDC KRAS-mutant spheroids with HUVEC/MSC, viability
Experiment: Anticancer human tumor 253994-281-T-J1-PDC patient-derived colorectal carcinoma cell line growth inhibition [KRAS2]
Conditions: for IC50: curve of first compound; for viability, T/C: stronger effect = lower value
Outline: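 KRAS-mutant tumor cells were grown as spheroids with HUVEC endothelial cells and human MSCs as stroma. Targeted agents were tested alone and with KRAS pathway inhibitors. Doses started at or near clinical Cmax, or 10 microM, descending half-log.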

[1] = second compound 0.1 µM, first compound 0.000316 µM
[2] = second compound 0.1 µM, first compound 0.001 µM
[3] = second compound 0.1 µM, first compound 0.00316 µM
[4] = second compound 0.1 µM, first compound 0.01 µM
[5] = second compound 0.1 µM, first compound 0.0316 µM
[6] = second compound 0.316 µM, first compound 0.000316 µM
[7] = second compound 0.316 µM, first compound 0.001 µM
[8] = second compound 0.316 µM, first compound 0.00316 µM
[9] = second compound 0.316 µM, first compound 0.01 µM
[10] = second compound 0.316 µM, first compound 0.0316 µM
[11] = second compound 1 µM, first compound 0.000316 µM
[12] = second compound 1 µM, first compound 0.001 µM
[13] = second compound 1 µM, first compound 0.00316 µM
[14] = second compound 1 µM, first compound 0.01 µM
[15] = second compound 1 µM, first compound 0.0316 µM
[16] = second compound 3.16 µM, first compound 0.000316 µM
[17] = second compound 3.16 µM, first compound 0.001 µM
[18] = second compound 3.16 µM, first compound 0.00316 µM
[19] = second compound 3.16 µM, first compound 0.01 µM
[20] = second compound 3.16 µM, first compound 0.0316 µM
[21] = second compound 10 µM, first compound 0.000316 µM
[22] = second compound 10 µM, first compound 0.001 µM
[23] = second compound 10 µM, first compound 0.00316 µM
[24] = second compound 10 µM, first compound 0.01 µM
[25] = second compound 10 µM, first compound 0.0316 µM
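Note: spheroids exposed to agents for seven days before readout.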
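Throughout, for viability, T/C: percent of DMSO vehicle control viability.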

Compound | IC50 (second compound 0.1 µM) [nM] | IC50 (second compound 0.316 µM) [nM] | IC50 (second compound 1 µM) [nM] | IC50 (second compound 3.16 µM) [nM] | IC50 (second compound 10 µM) [nM] | viability, T/C [1] [%] | viability, T/C [2] [%] | viability, T/C [3] [%] | viability, T/C [4] [%] | viability, T/C [5] [%] | viability, T/C [6] [%] | viability, T/C [7] [%] | viability, T/C [8] [%] | viability, T/C [9] [%] | viability, T/C [10] [%] | viability, T/C [11] [%] | viability, T/C [12] [%] | viability, T/C [13] [%] | viability, T/C [14] [%] | viability, T/C [15] [%] | also measured
CC(=O)Nc1cccc(-n2c(=O)n(C3CC3)c(=O)c3c(Nc4ccc(I)cc4F)n(C)c(=O)c(C)c32)c1 + CNCc1ccccc1-c1csc(C(C)Nc2nc(C)nc3cc(OC)c(OC)cc23)c1 | 0.649 | 0.415 | 0.205 | < 0.1 | < 0.1 | 81.5 | 31.4 | 19 | 10.6 | 5.26 | 57.2 | 28.7 | 17.2 | 10.9 | 4.68 | 39.9 | 16.3 | 10.7 | 7.62 | 3.86 | viability, T/C (second compound 0.1 µM, first compound 0.0001 µM): 81.3%; viability, T/C (second compound 0.316 µM, first compound 0.0001 µM): 80.2%; viability, T/C (second compound 1 µM, first compound 0.0001 µM): 67.4%; viability, T/C (second compound 3.16 µM, first compound 0.0001 µM): 5.81%; viability, T/C [16]: 1.42%; viability, T/C [17]: 0.92%; viability, T/C [18]: 0.18%; viability, T/C [19]: 0.16%; viability, T/C [20]: 0.34%; viability, T/C (second compound 10 µM, first compound 0.0001 µM): 0.16%; viability, T/C [21]: 0.15%; viability, T/C [22]: 0.14%; viability, T/C [23]: 0.18%; viability, T/C [24]: 0.12%; viability, T/C [25]: 0.21%
CN(C)C/C=C/C(=O)Nc1cc2c(Nc3ccc(F)c(Cl)c3)ncnc2cc1O[C@H]1CCOC1 + CNCc1ccccc1-c1csc(C(C)Nc2nc(C)nc3cc(OC)c(OC)cc23)c1 | > 100 | > 100 | > 100 | 2.36 | < 0.316 | 99.3 | 91.9 | 80.3 | 74.4 | 83.4 | 81.7 | 78.1 | 81.3 | 69 | 67.2 | 83.2 | 83 | 60.4 | 64.9 | 60.5 | viability, T/C (second compound 0.1 µM, first compound 0.1 µM): 54.7%; viability, T/C (second compound 0.316 µM, first compound 0.1 µM): 51%; viability, T/C (second compound 1 µM, first compound 0.1 µM): 62.1%; viability, T/C [16]: 93.9%; viability, T/C [17]: 97.6%; viability, T/C [18]: 33.2%; viability, T/C [19]: 0.82%; viability, T/C [20]: 68.7%; viability, T/C (second compound 3.16 µM, first compound 0.1 µM): 34.4%; viability, T/C [21]: 0.18%; viability, T/C [22]: 0.2%; viability, T/C [23]: 0.17%; viability, T/C [24]: 0.26%; viability, T/C [25]: 0.33%; viability, T/C (second compound 10 µM, first compound 0.1 µM): 0.24%
